For ten compounds, AC1.4 results are on record in US11780826B2 (Amgen Inc., priority 2017, dated 2023).

This assay relates to Bovine cardiac myofibrils. Nature of the assay: In vitro model of dose-dependent myofibril ATPase modulation (AC1.4, pyruvate kinase/lactate dehydrogenase-coupled ATPase assay at pCa25). It is filed as biochemical. To be noted: concentration at which ATPase activity was 1.4-fold higher than the bottom of the dose curve, mean of a minimum of two independent tests. In a few lines: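 ATP turnover tracked as NADH absorbance loss at 340 nm, coupled via pyruvate kinase/lactate dehydrogenase, with 1 mM ATP, 2 mM MgCl2 and 12 mM K-PIPES at pH 6.80 (22° C) under EGTA/CaCl2 calcium buffering. Substrate was detergent-treated bovine cardiac myofibrils; 4-parameter curve fit, AC1.4 averaged over at least two runs.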
As to `CS(=O)(=O)c1cncc(C(=O)N2C[C@@H](F)C[C@@H]2C(=O)N[C@@H](c2cc(F)c(Cl)cc2F)C2CC2)c1` [Example 488, (4S)-N-((R)-(4-chloro-2,5-difluorophenyl)(cyclopropyl)methyl)-4-fluoro-1-((5-(methylsulfonyl)-3-pyridinyl)carbonyl)-D-prolinamide], the AC1.4 came out at 2.1245 µM. The same measure for `N#CC1CN(S(=O)(=O)N2CCC[C@H](C(=O)N3CCC[C@@H]3C(=O)N[C@@H](c3cc(F)c(C(F)(F)F)cc3F)C3CC3)C2)C1` [Example 35, 1-(((3S)-1-((3-cyano-1-azetidinyl)sulfonyl)-3-piperidinyl)carbonyl)-N-((R)-cyclopropyl(2,5-difluoro-4-(trifluoromethyl)phenyl)methyl)-D-prolinamide]: 0.0372 µM. The same measure for `Cc1ccc(F)cc1CNC(=O)[C@H]1CCCN1C(=O)[C@H]1CCCN(S(=O)(=O)N2CC(C#N)C2)C1` [Example 508, 1-(((3S)-1-((3-cyano-1-azetidinyl)sulfonyl)-3-piperidinyl)carbonyl)-N-(5-fluoro-2-methylbenzyl)-D-prolinamide]: 2.3805 µM; for `CC[C@@H](NC(=O)[C@H]1CCCN1C(=O)[C@H]1CCCN(S(=O)(=O)N2CC(C#N)C2)C1)c1ccc(C(F)(F)F)cc1F` [Example 4, 1-(((3S)-1-((3-cyano-1-azetidinyl)sulfonyl)-3-piperidinyl)carbonyl)-N-((1R)-1-(2-fluoro-4-(trifluoromethyl)phenyl)propyl)-D-prolinamide]: 0.01635 µM. The same measure for `CS(=O)(=O)c1cncc(C(=O)N2C[C@H]3C[C@H]3[C@@H]2C(=O)N[C@@H](c2cc(F)c(Cl)cc2F)C2CC2)c1` [Example 512, (1R,2R,5S)-N-((R)-(4-chloro-2,5-difluorophenyl)(cyclopropyl)methyl)-3-((5-(methylsulfonyl)-3-pyridinyl)carbonyl)-3-azabicyclo[3.1.0]hexane-2-carboxamide]: 2.252 µM; for `CS(=O)(=O)c1cccc(C(=O)N2CC[C@@H]3C[C@]32C(=O)N[C@@H](c2ccc(C(F)(F)F)cc2F)C2CC2)c1` [Example 751, (1R,5R)-N-((R)-cyclopropyl(2-fluoro-4-(trifluoromethyl)phenyl)methyl)-2-(3-(methylsulfonyl)benzoyl)-2-azabicyclo[3.1.0]hexane-1-carboxamide]: 7.3925 µM; for `Cc1ccc([C@@H](C)NC(=O)[C@H]2CCCN2C(=O)c2cccc(S(=O)(=O)N3CC(C#N)C3)c2)c(F)c1` [Example 46, 1-((3-((3-cyano-1-azetidinyl)sulfonyl)phenyl)carbonyl)-N-((1R)-1-(2-fluoro-4-methylphenyl)ethyl)-D-prolinamide]: 0.0456 µM. Take `CS(=O)(=O)c1cccc(C(=O)N2[C@@H](C(=O)N[C@@H](c3ccc(C(F)(F)F)c(F)c3)C3COC3)C[C@H]3C[C@H]32)c1` [Example 193, (1R,3R,5R)-N-((R)-(3-fluoro-4-(trifluoromethyl)phenyl)(3-oxetanyl)methyl)-2-(3-(methylsulfonyl)benzoyl)-2-azabicyclo[3.1.0]hexane-3-carboxamide]: the AC1.4 was found to be 0.3676 µM. The same measure for `Cc1cc(CNC(=O)[C@H]2CCCN2C(=O)[C@H]2CCCN(S(=O)(=O)N3CC(C#N)C3)C2)cc(C(F)(F)F)c1` [Example 358, 1-(((3S)-1-((3-cyano-1-azetidinyl)sulfonyl)-3-piperidinyl)carbonyl)-N-(3-methyl-5-(trifluoromethyl)benzyl)-D-prolinamide]: 1.0947 µM; for `N#CC1CN(S(=O)(=O)N2CCC[C@H](C(=O)N3CCC[C@@H]3C(=O)NC(c3ccccc3)c3ccc(Cl)cc3)C2)C1` (stereo partly drawn) [Example 268, (2R)-N-((4-chlorophenyl)(phenyl)methyl)-1-((S)-1-((3-cyanoazetidin-1-yl)sulfonyl)piperidine-3-carbonyl)pyrrolidine-2-carboxamide]: 0.6764 µM.
